Experimental data reported in publication PMC6968685 (Journal of Enzyme Inhibition and Medicinal Chemistry, 2020).

Columns and labels:
[1] = system: P. falciparum CQ-resistant strain W2; test: In vitro antiplasmodial activity, SYBR Green I fluorescence-based method, strain W2; assay type: cell-based; conditions: Plasmodium falciparum; chloroquine-resistant strain W2; 48 h incubation; read-out: P. falciparum strains IC50 values, W2
How it was run: (§1)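 P. falciparum 3D7 and W2 cultured in human erythrocytes in RPMI with 0.5% Albumax I at 37 °C, exposed 48 h to compounds tested […]. Parasite DNA read by SYBR Green I fluorescence (ex 485/em 535 nm); IC50 by non-linear regression, mean of three independent experiments.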

[2] = system: P. falciparum CQ-sensitive strain 3D7; test: In vitro antiplasmodial activity, SYBR Green I fluorescence-based method, strain 3D7; assay type: cell-based; conditions: Plasmodium falciparum; chloroquine-sensitive strain 3D7; 48 h incubation; read-out: P. falciparum strains IC50 values, 3D7
How it was run: as §1

[3] = system: L. donovani (MHOM/IN/00/DEVI) promastigotes; test: In vitro antileishmanial activity, MTT assay on promastigotes; assay type: cell-based; conditions: Leishmania donovani, 72 h incubation, ≥10 = no activity noted at the highest concentration tested
How it was run: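 Log-phase L. donovani MHOM/IN/00/DEVI promastigotes (10^6/ml, Schneider's + 20% FCS) were exposed to graded compound concentrations (DMSO <0.5% v/v) for 72 h at 27 °C, in duplicate. Growth measured by MTT reduction (4 h, A570 nm); IC50 obtained by regression.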

[4] = system: T. brucei brucei AnTat 1.9; test: In vitro antitrypanosomal activity, Alamar Blue assay; assay type: cell-based; conditions: Trypanosoma brucei; slender bloodstream trypomastigotes, AnTat 1.9 strain; read-out: Trypanosoma brucei brucei IC50 values, Trypanos Antat 1.9
How it was run: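 Viability read-out: resazurin (Alamar Blue) fluorescence, 530 nm excitation/590 nm emission, after 5 h dye exposure following 69 h compound incubation at 37 °C, 5% CO2, 2000 parasites per well, doses in duplicate. IC50 values fitted nonlinearly, three independent runs.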

[5] = Cytotoxicity evaluation, MTT; assay type: cell-based, human; conditions: human
How it was run: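 HepG2 hepatocarcinoma cells exposed to compound in duplicate, then viability measured by MTT reduction (0.5 mg/ml), formazan dissolved in DMSO and read at 570 nm against 630 nm. Viability expressed as percent of untreated cells; CC50 taken from dose-response curve, doxorubicin as positive control.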

[6] = system: Plasmodium telomeric sequence FPf1T G-quadruplex; test: FRET melting experiments, FPf1T; assay type: binding, P. falciparum; conditions: 2 μM compound, 0.2 μM oligonucleotide, K+ conditions
Description: (§2) These were performed with dual-labelled oligonucleotides mimicking the Plasmodium telomeric sequences FPf1T [FAM-5′(GGGTTTA)3-GGG3′-TAMRA] and FPf8T [FAM-5′ (GGGTTCA)3GGG3′-TAMRA], the Trypanosoma 9 and 11 chromosomic sequence FTrypBT (also named FEBR1T) [FAM-5′[…]3′-TAMRA], the human telomeric sequence F21T [FAM-(GGGTTA)3-GGG3′-TAMRA], and the human duplex sequence FdxT [FAM5′-[…]-hexaethyleneglycol-[…]3′-TAMRA][51]^,[52]. The oligonucleotides were pre-folded in 10 mM lithium cacodylate buffer (pH 7.2), with 10 mM KCl and 90 mM LiCl (K^+condition). The FAM emissions were recorded at 516 nm using a 492-nm excitation wavelength in the absence and presence of a single compound as a function of temperature (25–95 °C) in 96-well microplates by using a Stratagene MX3000P real-time PCR device at a rate of 1 °C·min^−1. Data were normalised between 0 and 1, and the required temperature for half-denaturation of oligonucleotides corresponding to the emission value of 0.5 was taken as the Tm. […] For each compound, three independent experiments were carried out.

[7] = system: Plasmodium telomeric sequence FPf8T G-quadruplex; test: FRET melting experiments, FPf8T; assay type: binding, P. falciparum; conditions: 2 μM compound, 0.2 μM oligonucleotide, K+ conditions
Description: as §2

[8] = system: Trypanosoma 9 and 11 chromosomic sequence FTrypBT (FEBR1T) G-quadruplex; test: FRET melting experiments, FtrypBT; assay type: binding, T. brucei brucei; conditions: 2 μM compound, 0.2 μM oligonucleotide, K+ conditions
Description: as §2

[9] = system: human telomeric sequence F21T G-quadruplex; test: FRET melting experiments, F21T; assay type: binding; conditions: 2 μM compound, 0.2 μM oligonucleotide, K+ conditions
Description: as §2

[10] = system: human duplex sequence FdxT; test: FRET melting experiments, FdxT duplex control; assay type: binding; conditions: 2 μM compound, 0.2 μM oligonucleotide, K+ conditions
Description: as §2

Row | SMILES | IC50 [1] | IC50 [2] | IC50 [3] | IC50 [4] | CC50 at 72 h [5] | ΔTm FPf1T [6] | ΔTm FPf8T [7] | ΔTm FtrypBT [8] | ΔTm F21T [9] | ΔTm FdxT [10]
1 | COc1ccc2c(-c3ccc(CNCCCN(C)C)cc3)nc(-c3ccc(CNCCCN(C)C)cc3)cc2c1 [Compound 2j, 6-Methoxy-1,3-bis{4-[(3-dimethylaminopropyl)aminomethyl]phenyl}isoquinoline] | 5.09 ± 0.76 µM | 7.21 ± 0.59 µM | ≥ 10 µM | 0.59 ± 0.131 µM | 2.16 ± 0.2 µM | 15.3 ± 0.7 °C | 15.0 ± 0.6 °C | 12.2 ± 1.1 °C | 13.9 ± 0.1 °C | 0.5 ± 0.3 °C
2 | CN1CCN(CCCNCc2ccc(-c3cc(-c4ccc(CNCCCN5CCN(C)CC5)cc4)c4ccccc4n3)cc2)CC1 [Compound 1e, 2,4-Bis{4-[(3–(4-methylpiperazin-1-yl)propyl)aminomethyl]phenyl}quinoline] | 1.29 ± 0.063 µM | 0.47 ± 0.06 µM | ≥ 10 µM | 1.78 ± 0.089 µM | 11.3 ± 0.5 µM | 9.4 ± 0.6 °C | 9.2 ± 0.5 °C | 7.4 ± 0.1 °C | 11.3 ± 1.1 °C | 0.1 ± 0.1 °C
3 | COc1ccc2nc(-c3ccc(CNCCCN(C)C)cc3)nc(-c3ccc(CNCCCN(C)C)cc3)c2c1 [Compound 3i, 6-Methoxy-2,4-bis{4-[(3-dimethylaminopropyl)aminomethyl]phenyl}quinazoline] | 4.34 ± 0.74 µM | 4.05 ± 0.95 µM | ≥ 10 µM | 0.44 ± 0.084 µM | 1.93 ± 0.1 µM | 16.0 ± 0.3 °C | 15.6 ± 0.3 °C | 12.7 ± 0.7 °C | 12.6 ± 0.0 °C | 0.3 ± 0.3 °C
4 | COc1ccc2cc(-c3ccc(CNCCCCN(C)C)cc3)nc(-c3ccc(CNCCCCN(C)C)cc3)c2c1 [Compound 2e, 7-Methoxy-1,3-bis{4-[(4-dimethylaminobutyl)aminomethyl]phenyl}isoquinoline] | 6.06 ± 0.64 µM | 4.41 ± 0.51 µM | ≥ 10 µM | 0.55 ± 0.122 µM | 9.57 ± 1 µM | 27.3 ± 1.1 °C | 26.6 ± 0.2 °C | 24.0 ± 0.3 °C | 22.2 ± 0.1 °C | 4.1 ± 0.3 °C
5 | CN(C)CCCNCc1ccc(-c2cc(-c3ccc(CNCCCN(C)C)cc3)c3ccccc3n2)cc1 [Compound 1b, 2,4-Bis{4-[(3-dimethylaminopropyl)aminomethyl]phenyl}quinoline] | 0.88 ± 0.14 µM | 0.47 ± 0.06 µM | ≥ 10 µM | 0.82 ± 0.022 µM | 4.09 ± 0.2 µM | 8.4 ± 1.0 °C | 9.9 ± 0.1 °C | 7.8 ± 1.2 °C | 12.7 ± 0.6 °C | 0.0 ± 0.7 °C
6 | COc1ccc2nc(-c3ccc(CNCCN(C)C)cc3)nc(-c3ccc(CNCCN(C)C)cc3)c2c1 [Compound 3j, 6-Methoxy-2,4-bis{4-[(2-dimethylaminoethyl)aminomethyl]phenyl}quinazoline] | 1.23 ± 0.15 µM | 0.56 ± 0.02 µM | ≥ 10 µM | 1.04 ± 0.085 µM | 3.12 ± 0.2 µM | 3.4 ± 0.4 °C | 3.1 ± 0.4 °C | 4.4 ± 0.5 °C | 7.2 ± 0.4 °C | −0.4 ± 0.2 °C
7 | CN(C)CCCNCc1ccc(-c2cc3ccccc3c(-c3ccc(CNCCCN(C)C)cc3)n2)cc1 [Compound 2b, 1,3-Bis{4-[(3-dimethylaminopropyl)aminomethyl]phenyl}isoquinoline] | 3.02 ± 0.25 µM | 1.82 ± 0.31 µM | ≥ 10 µM | 0.35 ± 0.049 µM | 3.47 ± 0.3 µM | 13.6 ± 1.3 °C | 13.0 ± 1.1 °C | 11.7 ± 0.6 °C | 12.7 ± 0.3 °C | 0.3 ± 0.2 °C
8 | CN(C)CCNCc1ccc(-c2cc(-c3ccc(CNCCN(C)C)cc3)c3ccccc3n2)cc1 [Compound 1c, 2,4-Bis{4-[(2-dimethylaminoethyl)aminomethyl]phenyl}quinoline] | 0.34 ± 0.037 µM | 0.032 ± 0.004 µM | ≥ 10 µM | 1.48 ± 0.085 µM | 3.1 ± 0.9 µM | 2.3 ± 0.7 °C | 2.7 ± 0.2 °C | 2.6 ± 0.4 °C | 2.8 ± 1.3 °C | −0.5 ± 0.4 °C
9 | COc1ccc2c(-c3ccc(CNCCCCN(C)C)cc3)nc(-c3ccc(CNCCCCN(C)C)cc3)cc2c1 [Compound 2i, 6-Methoxy-1,3-bis{4-[(4-dimethylaminobutyl)aminomethyl]phenyl}isoquinoline] | 2.4 ± 0.49 µM | 8.46 ± 0.66 µM | ≥ 10 µM | 0.64 ± 0.323 µM | 10.8 ± 0.8 µM | 12.8 ± 1.3 °C | 12.9 ± 1.0 °C | 8.4 ± 0.3 °C | 23.2 ± 0.6 °C | 0.9 ± 0.1 °C
10 | c1ccc2c(-c3ccc(CNCCCN4CCOCC4)cc3)nc(-c3ccc(CNCCCN4CCOCC4)cc3)nc2c1 [Compound 3f, 2,4-Bis{4-[(3-morpholinopropyl)aminomethyl]phenyl}quinazoline] | – | 0.42 ± 0.083 µM | ≥ 10 µM | 0.81 ± 0.063 µM | 4.52 ± 0.4 µM | 3.3 ± 0.3 °C | 2.9 ± 0.3 °C | 2.8 ± 0.1 °C | 3.1 ± 0.5 °C | −0.2 ± 0.2 °C
11 | c1cc(CNCCN2CCOCC2)cc(-c2nc(-c3cccc(CNCCN4CCOCC4)c3)c3ccccc3n2)c1 [Compound 3v, 2,4-Bis{3-[(2-morpholinoethyl)aminomethyl]phenyl}quinazoline] | – | 0.36 ± 0.126 µM | ≥ 10 µM | 1.37 ± 0.658 µM | 6.46 ± 1 µM | 0.5 ± 0.3 °C | 0.5 ± 0.4 °C | 0.6 ± 0.1 °C | 0.1 ± 0.1 °C | 0.0 ± 0.0 °C
